Experimental data as given in patent US20250163038A1, “CBL-B MODULATORS AND USES THEREOF” (Nimbus Clio, Inc., priority 2021, published 2025).

Assays:
[1] = molecular target: T1, Recombinant human c-Cbl (aa 47-435) (Homo sapiens, UniProt P22681); experiment: c-Cbl Biochemical Assay (TR-FRET); conditions: hc-Cbl Biochemical Assay (TR-FRET); read-out: TR-FRET hcCbl IC50
T1 sequence (P22681 47-435): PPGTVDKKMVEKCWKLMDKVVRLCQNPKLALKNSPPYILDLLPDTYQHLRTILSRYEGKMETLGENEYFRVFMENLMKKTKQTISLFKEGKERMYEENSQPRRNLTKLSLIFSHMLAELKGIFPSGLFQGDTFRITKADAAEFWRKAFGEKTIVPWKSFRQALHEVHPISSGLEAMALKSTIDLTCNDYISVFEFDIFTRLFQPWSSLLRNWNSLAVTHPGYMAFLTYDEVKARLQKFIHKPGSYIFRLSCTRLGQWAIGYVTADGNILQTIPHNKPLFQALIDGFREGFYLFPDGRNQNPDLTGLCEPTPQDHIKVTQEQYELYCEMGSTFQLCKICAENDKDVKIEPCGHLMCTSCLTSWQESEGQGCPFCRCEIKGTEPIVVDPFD

[2] = molecular target: Recombinant human Cbl-b (aa 36-427) (Homo sapiens, UniProt Q13191); experiment: Cbl-b Biochemical Assay (TR-FRET); conditions: read-out: TR-FRET hCbl-b IC50
Recombinant human Cbl-b (aa 36-427), sequence (Q13191 36-427): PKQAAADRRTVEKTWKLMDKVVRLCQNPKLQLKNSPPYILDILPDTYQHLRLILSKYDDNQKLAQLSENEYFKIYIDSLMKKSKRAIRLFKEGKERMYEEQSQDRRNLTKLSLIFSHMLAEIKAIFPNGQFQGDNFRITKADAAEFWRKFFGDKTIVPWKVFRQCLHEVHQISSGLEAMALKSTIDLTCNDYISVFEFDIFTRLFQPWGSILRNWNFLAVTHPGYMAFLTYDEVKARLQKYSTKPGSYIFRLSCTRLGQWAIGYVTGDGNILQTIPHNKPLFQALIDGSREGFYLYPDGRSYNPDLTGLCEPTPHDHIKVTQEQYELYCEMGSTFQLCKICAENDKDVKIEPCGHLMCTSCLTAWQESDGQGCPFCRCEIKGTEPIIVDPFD

| Structure (SMILES) | IC50 [1] | IC50 [2] |
| --- | --- | --- |
| Cn1cnnc1CC1(c2cccc(-c3cc(C(F)(F)F)cn(CCO)c3=O)c2)COC1 [ACG-3, 1-(2-Hydroxyethyl)-3-(3-(3-((4-methyl-4H-1,2,4-triazol-3-yl)methyl)oxetan-3-yl)phenyl)-5-(trifluoromethyl)pyridin-2(1H)-one] | 10 to 50 µM | 0.2 to 1 µM |
| Cn1cnnc1CC1(c2cccc(-c3nc4cc(OCCN5CCCC5)cc(C(F)(F)F)c4[nH]3)c2)COC1 [ACJ-5, 2-(3-(3-((4-Methyl-4H-1,2,4-triazol-3-yl)methyl)oxetan-3-yl)phenyl)-5-(2-(pyrrolidin-1-yl)ethoxy)-7-(trifluoromethyl)-1H-benzo[d]imidazole] | 10 to 50 µM | 10 to 50 µM |
| Cn1cnnc1CC1(c2cccc(-c3nc4cccc(C(F)(F)F)c4o3)c2)COC1 [ACO-1, 2-(3-(3-((4-Methyl-4H-1,2,4-triazol-3-yl)methyl)oxetan-3-yl)phenyl)-7-(trifluoromethyl)benzo[d]oxazole] | 10 to 50 µM | 0.2 to 1 µM |
| CCNc1cc(-c2c(-c3nncn3C)cnn2C)cc(-c2cc(C(F)(F)F)c[nH]c2=O)n1 [ACQ-3, 6-(Ethylamino)-4-(1-methyl-4-(4-methyl-4H-1,2,4-triazol-3-yl)-1H-pyrazol-5-yl)-5′-(trifluoromethyl)-[2,3′-bipyridin]-2′(1′H)-one] | 1 to 10 µM | 0.2 to 1 µM |
| CCNc1cc(-c2c(-c3nncn3C)cnn2C)cc(-c2nc3cccc(C(F)(F)F)c3s2)n1 [ACU-2, N-Ethyl-4-[2-methyl-4-(4-methyl-1,2,4-triazol-3-yl)-pyrazol-3-yl]-6-[7-(trifluoromethyl)-1,3-benzothiazol-2-yl]-pyridin-2-amine] | 10 to 50 µM | 10 to 50 µM |
| COC(=O)c1cc(C(F)(F)F)c2oc(-c3cccc([C@]4(c5nncn5C)C[C@@H](C)C4)c3)nc2c1 [ADC-3, Methyl 2-(3-((1s,3s)-3-methyl-1-(4-methyl-4H-1,2,4-triazol-3-yl)cyclobutyl)phenyl)-7-(trifluoromethyl)benzo[d]oxazole-5-carboxylate] | 10 to 50 µM | 1 to 10 µM |
| Cn1cnnc1[C@]1(c2cccc(-c3nc4cc(CO)cc(C(F)(F)F)c4o3)c2)C[C@H](C)C1 [ADD-1, (2-(3-((1s,3s)-3-Methyl-1-(4-methyl-4H-1,2,4-triazol-3-yl)cyclobutyl)phenyl)-7-(trifluoromethyl)benzo[d]oxazol-5-yl)methanol] | 1 to 10 µM | 0.2 to 1 µM |
| COC(=O)c1ccc2oc(-c3cccc(-c4ccc(Cl)cc4-c4nncn4C)c3)nc2c1 [ADJ-2, Methyl 2-[4′-chloro-2′-(4-methyl-1,2,4-triazol-3-yl)-[1,1′-biphenyl]-3-yl]-1,3-benzoxazole-5-carboxylate] | 1 to 10 µM | 1 to 10 µM |
| COC(=O)c1cc(OC)c2oc(-c3cccc([C@]4(c5nncn5C)C[C@@H](C)C4)c3)nc2c1 [AEA-1, Methyl 7-methoxy-2-{3-[(1r,3s)-3-methyl-1-(4-methyl-1,2,4-triazol-3-yl)cyclobutyl]phenyl}-1,3-benzoxazole-5-carboxylate] | 10 to 50 µM | 10 to 50 µM |
| COc1cc(CO)cc2nc(-c3cccc([C@]4(c5nncn5C)C[C@@H](C)C4)c3)oc12 [AEB-1, (7-Methoxy-2-{3-[(1r,3s)-3-methyl-1-(4-methyl-1,2,4-triazol-3-yl)cyclobutyl]phenyl}-1,3-benzoxazol-5-yl)methanol] | 1 to 10 µM | 1 to 10 µM |
| Cn1cnnc1-c1cc(F)ccc1-c1cccc(-c2nc3ccccc3o2)c1 [AR-2, 2-(4′-Fluoro-2′-(4-methyl-4H-1,2,4-triazol-3-yl)-[1,1′-biphenyl]-3-yl)benzo[d]oxazole] | 10 to 50 µM | 10 to 50 µM |
| COC(OC)c1ccc2oc(-c3cccc(-c4ccc(F)cc4-c4nncn4C)c3)nc2c1 [AT-1, 5-(Dimethoxymethyl)-2-(4′-fluoro-2′-(4-methyl-4H-1,2,4-triazol-3-yl)-[1,1′-biphenyl]-3-yl)benzo[d]oxazole] | 10 to 50 µM | 10 to 50 µM |
| CC(Cc1nncn1C)c1cccc(-c2nc3ccc(OCCN(C)C)c(C(F)(F)F)c3[nH]2)c1 (centres unmarked) [AW-4, N,N-dimethyl-2-((2-(3-(1-(4-methyl-4H-1,2,4-triazol-3-yl)propan-2-yl)phenyl)-7-(trifluoromethyl)-1H-benzo[d]imidazol-6-yl)oxy)ethan-1-amine] | 10 to 50 µM | 10 to 50 µM |
| CC(Cc1nncn1C)c1cccc(-c2nc3ccc(OCCN4CCCC4)c(C(F)(F)F)c3[nH]2)c1 (centres unmarked) [AX-3, 2-(3-(1-(4-Methyl-4H-1,2,4-triazol-3-yl)propan-2-yl)phenyl)-6-(2-(pyrrolidin-1-yl)ethoxy)-7-(trifluoromethyl)-1H-benzo[d]imidazole] | 10 to 50 µM | 10 to 50 µM |
| CN(C)CCOc1ccc2nc(-c3cccc(C4(Cc5nncn5C)COC4)c3)[nH]c2c1C(F)(F)F [AZ-1, N,N-Dimethyl-2-((2-(3-(3-((4-methyl-4H-1,2,4-triazol-3-yl)methyl)oxetan-3-yl)phenyl)-7-(trifluoromethyl)-1H-benzo[d]imidazol-6-yl)oxy)ethan-1-amine] | 10 to 50 µM | 10 to 50 µM |
| Cn1cnnc1CC1(c2cccc(-c3nc4ccc(Br)c(C(F)(F)F)c4[nH]3)c2)COC1 [BA-1, 6-Bromo-2-(3-(3-((4-methyl-4H-1,2,4-triazol-3-yl)methyl)oxetan-3-yl)phenyl)-7-(trifluoromethyl)-1H-benzo[d]imidazole] | 10 to 50 µM | 1 to 10 µM |
| Cn1cnnc1-c1ccccc1-c1cccc(-c2nc3ccc(OCCN4CCCC4)c(C(F)(F)F)c3[nH]2)c1 [BG-1, 2-(2′-(4-Methyl-4H-1,2,4-triazol-3-yl)-[1,1′-biphenyl]-3-yl)-6-(2-(pyrrolidine-1-yl)ethoxy)-7-(trifluoromethyl)-1H-benzo[d]imidazole] | 10 to 50 µM | 10 to 50 µM |
| CN1CC[C@@H](Oc2ccc3nc(-c4cccc(-c5ccccc5-c5nncn5C)c4)[nH]c3c2C(F)(F)F)C1 [BH-3, (R)-2-(2′-(4-Methyl-4H-1,2,4-triazol-3-yl)-[1,1′-biphenyl]-3-yl)-6-((1-methylpyrrolidin-3-yl)oxy)-7-(trifluoromethyl)-1H-benzo[d]imidazole] | 10 to 50 µM | 10 to 50 µM |

Next, values leading:

| IC50 [1] | IC50 [2] | Structure (SMILES) |
| --- | --- | --- |
| 1 to 10 µM | 0.2 to 1 µM | Cn1cnnc1CC1(c2cccc(-c3nc4cc(CNc5nccn5C)cc(C(F)(F)F)c4[nH]3)c2)COC1 [ACC-1, 1-Methyl-N-((2-(3-(3-((4-methyl-4H-1,2,4-triazol-3-yl)methyl)oxetan-3-yl)phenyl)-7-(trifluoromethyl)-1H-benzo[d]imidazol-5-yl)methyl)-1H-imidazol-2-amine] |
| 1 to 10 µM | 0.2 to 1 µM | Cn1cnnc1CC1(c2cccc(-c3nc4cc(CN5CC[C@H](O)C5)cc(C(F)(F)F)c4[nH]3)c2)COC1 [ACL-1, (S)-1-((2-(3-(3-((4-Methyl-4H-1,2,4-triazol-3-yl)methyl)oxetan-3-yl)phenyl)-7-(trifluoromethyl)-1H-benzo[d]imidazol-5-yl)methyl)pyrrolidin-3-ol] |
| 10 to 50 µM | 10 to 50 µM | Cn1cnnc1-c1cnn(C)c1-c1cc(Cl)nc(-c2cc(C(F)(F)F)c[nH]c2=O)c1 [ACR-3, 6-Chloro-4-(1-methyl-4-(4-methyl-4H-1,2,4-triazol-3-yl)-1H-pyrazol-5-yl)-5′-(trifluoromethyl)-[2,3′-bipyridin]-2′(1′H)-one] |
| 10 to 50 µM | 10 to 50 µM | Cn1cnnc1-c1cc(F)ccc1-c1cc(Cl)nc(-c2nc3cc(CO)cc(C(F)(F)F)c3[nH]2)c1 [ADX-3, (2-{6-Chloro-4-[4-fluoro-2-(4-methyl-1,2,4-triazol-3-yl)phenyl]pyridin-2-yl}-7-(trifluoromethyl)-1H-1,3-benzodiazol-5-yl)methanol] |
| 10 to 50 µM | 10 to 50 µM | COC(=O)c1ccc2[nH]c(-c3cc(-c4ccc(F)cc4-c4nncn4C)cc(C4CC4)n3)nc2c1 [AED-3, Methyl 2-(6-cyclopropyl-4-(4-fluoro-2-(4-methyl-4H-1,2,4-triazol-3-yl)phenyl)pyridin-2-yl)-1H-benzo[d]imidazole-5-carboxylate] |
| 1 to 10 µM | 1 to 10 µM | Cn1cnnc1-c1cc(F)ccc1-c1cc(-c2nc3cc(CO)ccc3[nH]2)nc(C2CC2)c1 [AEE-1, (2-(6-Cyclopropyl-4-(4-fluoro-2-(4-methyl-4H-1,2,4-triazol-3-yl)phenyl)pyridin-2-yl)-1H-benzo[d]imidazol-5-yl)methanol] |
| 1 to 10 µM | 0.2 to 1 µM | CCNc1cc(-c2ccc(F)cc2-c2nncn2C)cc(-c2nc3cccc(C(F)(F)F)c3o2)n1 [AEJ-4, N-Ethyl-4-[4-fluoro-2-(4-methyl-1,2,4-triazol-3-yl)phenyl]-6-[7-(trifluoromethyl)-1,3-benzoxazol-2-yl]pyridin-2-amine] |
| 10 to 50 µM | 10 to 50 µM | Cn1cnnc1-c1cc(F)ccc1-c1cccc(-c2nc3cc(CO)ccc3o2)c1 [AJ-3, (2-(4′-Fluoro-2′-(4-methyl-4H-1,2,4-triazol-3-yl)-[1,1′-biphenyl]-3-yl)benzo[d]oxazol-5-yl)methanol] |
| 10 to 50 µM | 0.2 to 1 µM | Cn1cnnc1-c1cc(C#N)ccc1-c1cccc(-c2nc3cccc(C(F)(F)F)c3o2)c1 [AU-1, 2-(4-Methyl-4H-1,2,4-triazol-3-yl)-3′-(7-(trifluoromethyl)benzo[d]oxazol-2-yl)-[1,1′-biphenyl]-4-carbonitrile] |
| 10 to 50 µM | 10 to 50 µM | Cn1cnnc1-c1ccccc1-c1cccc(-c2nc3ccc(N)c(C(F)(F)F)c3[nH]2)c1 [BE-2, 2-(2′-(4-Methyl-4H-1,2,4-triazol-3-yl)-[1,1′-biphenyl]-3-yl)-7-(trifluoromethyl)-1H-benzo[d]imidazol-6-amine] |
